pIC50: −log10 of the molar value.
Tests used:
hMAPKAPK2 = biological target: T1, hMAPKAPK2 (Homo sapiens, UniProt P49137); assay: KINOMEscan; type: binding
T1 construct: purchased DiscoverX

hMET(M1250T) = biological target: T2, hMET(M1250T) (Homo sapiens, UniProt P08581, M1250T); assay: KINOMEscan; type: binding
T2 construct: purchased DiscoverX

[1] = test system: SMYD2-mediated methylation of p53 Lys370; assay: Western blot for p53 Lys370me1, HEK293 cells co-transfected with FLAG-SMYD2 and FLAG-p53; type: cell-based; settings: Homo sapiens, 0–2.5 μM, 28 h, read-out: IC50, decrease in p53 Lys370me1
Procedure: (§1) Cell lysates were subject to 10% SDS-PAGE and transferred to a PVDF membrane. Each membrane was blocked in Odyssey Blocking Buffer (LI-COR Biosciences) and incubated with monoclonal anti-p53 (D01) antibody (Abcam, ab1101) or rabbit anti-p53 Lys^370me1 antibody (a kind gift from Dr. Shelley Berger) followed by detection with IRDye®680RD goat anti-mouse IgG (LI-COR Biosciences) and IRDye800CW goat anti-rabbit IgG (LI-COR Biosciences) on the Odyssey Imager (LI-COR Biosciences). […] 4–8 h later, cells were treated with 0–25 μM compound for 15 h. […] 24 h later, cells were lysed with 200 μl of MSD Tris Lysis Buffer^TM (Meso Scale Discovery). A MULTI-ARRAY^TM 96-well plate (Meso Scale Discovery, catalog number L15XA-3) was precoated with 2 μg/ml custom-made methyl-p53 antibody (Lampire) in PBS overnight at 4 °C. 150 μl/well MSD Blocking Solution A^TM (final concentration of 3%) was added followed by shaking at room temperature for 1 h. The plate was washed three times with 1× MSD Tris Wash Buffer^TM (Meso Scale Discovery). 0.5 μg of cell lysate in 25 μl/well MSD Tris Lysis Buffer was added, followed by shaking overnight at 4 °C. […] Following a final wash three times with 1× MSD Tris Wash Buffer, 150 μl/well 1× MSD Read Buffer^TM (Meso Scale Discovery) was added, and plates were read on an MSD SECTOR^TM Imager 6000 instrument (Meso Scale Discovery).

hKIT(V559D,V654A) = biological target: T3, hKIT(V559D,V654A) (Homo sapiens, UniProt P10721, V559D/V654A); assay: KINOMEscan; type: binding
T3 construct: purchased DiscoverX (KINOMEscan platform)

hAKT1 = biological target: T4, hAKT1 (Homo sapiens, UniProt P31749); assay: KINOMEscan; type: binding
T4 construct: purchased DiscoverX

hDMPK2 = biological target: T5, hDMPK2 (Homo sapiens, UniProt Q6DT37); assay: KINOMEscan; type: binding
T5 construct: purchased DiscoverX (KINOMEscan platform)

hM3 = hM3 (Homo sapiens, UniProt P20309); assay: β-arrestin Antagonist (Eurofins-CEREP); settings: read-out: % Effect, Inhibition
hTAOK3 = biological target: T6, hTAOK3 (Homo sapiens, UniProt Q9H2K8); assay: KINOMEscan; type: binding
T6 construct: purchased DiscoverX

hULK1 = biological target: T7, hULK1 (Homo sapiens, UniProt O75385); assay: KINOMEscan; type: binding
T7 construct: purchased DiscoverX

hAURKB = biological target: T8, hAURKB (Homo sapiens, UniProt Q96GD4); assay: KINOMEscan; type: binding
T8 construct: purchased DiscoverX

hRSK2(Kin.Dom.1-N-term) = biological target: T9, hRSK2(Kin.Dom.1-N-term) (Homo sapiens, UniProt P51812); assay: KINOMEscan; type: binding
T9 construct: hRSK2(Kin.Dom.1-N-term); purchased DiscoverX (KINOMEscan platform)

hPPARδ = biological target: T10, hPPARδ (Homo sapiens, UniProt Q03181); assay: Nuclear hormone receptor assay (Eurofins-CEREP); settings: read-out: Relative IC50
T10 construct: Eurofins-CEREP

[2] = biological target: T11, hRPS6KA4(Kin.Dom.2-C-term) (Homo sapiens, UniProt O75676); assay: KINOMEscan; type: binding
T11 construct: hRPS6KA4(Kin.Dom.2-C-term); purchased DiscoverX (KINOMEscan platform)

hFRK = biological target: T12, hFRK (Homo sapiens, UniProt P42685); assay: KINOMEscan; type: binding
T12 construct: purchased DiscoverX

[3] = biological target: T13, hEGFR(L747-S752del, P753S) (Homo sapiens, UniProt P00533, DEL747-752/P753S); assay: KINOMEscan; type: binding
T13 construct: purchased DiscoverX

hADRβ1 = hADRβ1 (Homo sapiens, UniProt P08588); assay: cAMP Potentiation (Eurofins-CEREP); settings: @ 10 μM
[4] = biological target: T14, hTYK2(JH2Dom.-pseudokinase) (Homo sapiens, UniProt P29597); assay: KINOMEscan; type: binding
T14 construct: hTYK2(JH2Dom.-pseudokinase); purchased DiscoverX

MDA MB-231 cells = assay: Proliferation assay (CellTiter-Glo); type: cell-based, human
Procedure: Cell viability was measured using CellTiter-Glo^TM (Promega) according to the manufacturer's instructions.

hCSNK2A2 = biological target: T15, hCSNK2A2 (Homo sapiens, UniProt P19784); assay: KINOMEscan; type: binding
T15 construct: purchased DiscoverX (KINOMEscan platform)

hIKK-epsilon = biological target: T16, hIKK-epsilon (Homo sapiens, UniProt Q14164); assay: KINOMEscan; type: binding
T16 construct: purchased DiscoverX (KINOMEscan panel)

mono-methyl-Lys370 p53 = assay: Meso Scale Discovery sandwich ELISA mono-methyl-Lys370 p53/total p53, KYSE-150 cells stably expressing FLAG-SMYD2; type: cell-based; settings: Homo sapiens; KYSE-150 stably expressing SMYD2, sandwich ELISA, 24 h
Procedure: as §1

hMEK2 = biological target: T17, hMEK2 (Homo sapiens, UniProt P36507); assay: KINOMEscan; type: binding
T17 construct: purchased DiscoverX

hTAOK1 = biological target: T18, hTAOK1 (Homo sapiens, UniProt Q7L7X3); assay: KINOMEscan; type: binding
T18 construct: purchased DiscoverX

hCIT = biological target: T19, hCIT (Homo sapiens, UniProt O14578); assay: KINOMEscan; type: binding
T19 construct: purchased DiscoverX

hMAPKAPK5 = biological target: T20, hMAPKAPK5 (Homo sapiens, UniProt Q8IW41); assay: KINOMEscan; type: binding
T20 construct: purchased DiscoverX

hGCN2(Kin.Dom.2,S808G) = biological target: T21, hGCN2(Kin.Dom.2,S808G) (Homo sapiens, UniProt Q9P2K8, S808G); assay: KINOMEscan; type: binding
T21 construct: hGCN2(Kin.Dom.2,S808G); purchased DiscoverX

hWEE2 = biological target: T22, hWEE2 (Homo sapiens, UniProt P0C1S8); assay: KINOMEscan; type: binding
T22 construct: purchased DiscoverX

T13 sequence (P00533 with tags, fused parts or gaps DEL747-752/P753S): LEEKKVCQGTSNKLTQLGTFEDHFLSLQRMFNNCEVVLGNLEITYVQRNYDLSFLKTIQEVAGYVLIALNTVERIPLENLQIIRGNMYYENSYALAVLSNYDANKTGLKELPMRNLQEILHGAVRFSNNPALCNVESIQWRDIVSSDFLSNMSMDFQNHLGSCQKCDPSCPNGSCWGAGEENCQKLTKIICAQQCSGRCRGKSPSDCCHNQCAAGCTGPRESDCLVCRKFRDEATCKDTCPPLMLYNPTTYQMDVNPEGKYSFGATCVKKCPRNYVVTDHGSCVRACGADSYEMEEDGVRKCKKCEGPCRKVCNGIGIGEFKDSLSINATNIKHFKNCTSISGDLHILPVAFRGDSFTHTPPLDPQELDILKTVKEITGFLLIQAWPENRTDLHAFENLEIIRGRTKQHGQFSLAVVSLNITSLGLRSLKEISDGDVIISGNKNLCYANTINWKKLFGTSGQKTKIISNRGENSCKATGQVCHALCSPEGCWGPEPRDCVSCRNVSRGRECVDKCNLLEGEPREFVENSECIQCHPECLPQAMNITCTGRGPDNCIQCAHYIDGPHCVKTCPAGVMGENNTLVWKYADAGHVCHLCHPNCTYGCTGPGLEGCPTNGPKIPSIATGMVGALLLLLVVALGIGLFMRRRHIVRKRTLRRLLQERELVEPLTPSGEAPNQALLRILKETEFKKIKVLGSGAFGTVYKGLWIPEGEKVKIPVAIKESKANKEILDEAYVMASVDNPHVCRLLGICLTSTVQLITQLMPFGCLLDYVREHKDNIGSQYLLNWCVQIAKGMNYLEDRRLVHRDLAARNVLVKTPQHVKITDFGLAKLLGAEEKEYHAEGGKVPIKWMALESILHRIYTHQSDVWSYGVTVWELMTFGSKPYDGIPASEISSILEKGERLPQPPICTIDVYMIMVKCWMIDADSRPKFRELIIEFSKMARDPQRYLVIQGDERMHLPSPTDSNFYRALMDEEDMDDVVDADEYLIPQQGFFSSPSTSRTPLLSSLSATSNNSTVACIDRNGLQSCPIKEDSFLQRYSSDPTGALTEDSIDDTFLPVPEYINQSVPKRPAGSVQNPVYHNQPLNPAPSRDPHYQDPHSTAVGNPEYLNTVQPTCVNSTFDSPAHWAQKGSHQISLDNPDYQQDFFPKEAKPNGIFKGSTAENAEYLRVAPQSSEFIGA
T8 sequence (Q96GD4 whole entry): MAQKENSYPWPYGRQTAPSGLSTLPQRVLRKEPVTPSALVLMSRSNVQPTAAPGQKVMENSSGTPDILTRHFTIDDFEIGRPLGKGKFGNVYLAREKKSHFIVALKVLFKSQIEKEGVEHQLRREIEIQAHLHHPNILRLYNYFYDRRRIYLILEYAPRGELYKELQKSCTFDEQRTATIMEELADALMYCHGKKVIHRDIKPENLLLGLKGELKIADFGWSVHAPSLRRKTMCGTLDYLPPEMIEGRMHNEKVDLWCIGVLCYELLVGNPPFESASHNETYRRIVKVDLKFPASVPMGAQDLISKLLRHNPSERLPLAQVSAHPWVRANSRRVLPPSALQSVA
T10 sequence (Q03181 whole entry): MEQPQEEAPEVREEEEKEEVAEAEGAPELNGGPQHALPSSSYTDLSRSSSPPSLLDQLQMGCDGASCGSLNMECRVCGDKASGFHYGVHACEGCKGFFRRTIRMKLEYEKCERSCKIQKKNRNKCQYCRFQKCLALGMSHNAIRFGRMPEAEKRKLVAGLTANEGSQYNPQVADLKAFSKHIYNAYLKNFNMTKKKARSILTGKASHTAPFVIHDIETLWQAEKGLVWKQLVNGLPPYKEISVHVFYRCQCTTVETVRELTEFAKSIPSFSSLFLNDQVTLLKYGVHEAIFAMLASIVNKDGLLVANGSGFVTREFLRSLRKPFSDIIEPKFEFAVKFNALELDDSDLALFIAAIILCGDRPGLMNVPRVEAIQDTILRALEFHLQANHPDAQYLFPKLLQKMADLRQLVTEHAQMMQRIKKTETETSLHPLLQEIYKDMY
T4 sequence (P31749 whole entry): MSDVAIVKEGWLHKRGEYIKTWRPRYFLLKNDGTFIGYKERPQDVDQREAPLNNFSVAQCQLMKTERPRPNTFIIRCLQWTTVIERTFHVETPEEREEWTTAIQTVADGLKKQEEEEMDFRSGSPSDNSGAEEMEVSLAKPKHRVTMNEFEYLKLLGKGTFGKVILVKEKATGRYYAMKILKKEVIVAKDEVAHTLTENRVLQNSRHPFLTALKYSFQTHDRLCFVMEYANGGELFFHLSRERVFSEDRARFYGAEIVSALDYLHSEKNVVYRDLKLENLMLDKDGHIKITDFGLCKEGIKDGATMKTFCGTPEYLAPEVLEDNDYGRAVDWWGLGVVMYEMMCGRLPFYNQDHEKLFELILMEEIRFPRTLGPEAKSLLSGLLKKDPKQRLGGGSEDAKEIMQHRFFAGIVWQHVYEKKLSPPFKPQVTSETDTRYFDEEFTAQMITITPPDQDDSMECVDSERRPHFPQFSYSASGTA
T5 sequence (Q6DT37 whole entry): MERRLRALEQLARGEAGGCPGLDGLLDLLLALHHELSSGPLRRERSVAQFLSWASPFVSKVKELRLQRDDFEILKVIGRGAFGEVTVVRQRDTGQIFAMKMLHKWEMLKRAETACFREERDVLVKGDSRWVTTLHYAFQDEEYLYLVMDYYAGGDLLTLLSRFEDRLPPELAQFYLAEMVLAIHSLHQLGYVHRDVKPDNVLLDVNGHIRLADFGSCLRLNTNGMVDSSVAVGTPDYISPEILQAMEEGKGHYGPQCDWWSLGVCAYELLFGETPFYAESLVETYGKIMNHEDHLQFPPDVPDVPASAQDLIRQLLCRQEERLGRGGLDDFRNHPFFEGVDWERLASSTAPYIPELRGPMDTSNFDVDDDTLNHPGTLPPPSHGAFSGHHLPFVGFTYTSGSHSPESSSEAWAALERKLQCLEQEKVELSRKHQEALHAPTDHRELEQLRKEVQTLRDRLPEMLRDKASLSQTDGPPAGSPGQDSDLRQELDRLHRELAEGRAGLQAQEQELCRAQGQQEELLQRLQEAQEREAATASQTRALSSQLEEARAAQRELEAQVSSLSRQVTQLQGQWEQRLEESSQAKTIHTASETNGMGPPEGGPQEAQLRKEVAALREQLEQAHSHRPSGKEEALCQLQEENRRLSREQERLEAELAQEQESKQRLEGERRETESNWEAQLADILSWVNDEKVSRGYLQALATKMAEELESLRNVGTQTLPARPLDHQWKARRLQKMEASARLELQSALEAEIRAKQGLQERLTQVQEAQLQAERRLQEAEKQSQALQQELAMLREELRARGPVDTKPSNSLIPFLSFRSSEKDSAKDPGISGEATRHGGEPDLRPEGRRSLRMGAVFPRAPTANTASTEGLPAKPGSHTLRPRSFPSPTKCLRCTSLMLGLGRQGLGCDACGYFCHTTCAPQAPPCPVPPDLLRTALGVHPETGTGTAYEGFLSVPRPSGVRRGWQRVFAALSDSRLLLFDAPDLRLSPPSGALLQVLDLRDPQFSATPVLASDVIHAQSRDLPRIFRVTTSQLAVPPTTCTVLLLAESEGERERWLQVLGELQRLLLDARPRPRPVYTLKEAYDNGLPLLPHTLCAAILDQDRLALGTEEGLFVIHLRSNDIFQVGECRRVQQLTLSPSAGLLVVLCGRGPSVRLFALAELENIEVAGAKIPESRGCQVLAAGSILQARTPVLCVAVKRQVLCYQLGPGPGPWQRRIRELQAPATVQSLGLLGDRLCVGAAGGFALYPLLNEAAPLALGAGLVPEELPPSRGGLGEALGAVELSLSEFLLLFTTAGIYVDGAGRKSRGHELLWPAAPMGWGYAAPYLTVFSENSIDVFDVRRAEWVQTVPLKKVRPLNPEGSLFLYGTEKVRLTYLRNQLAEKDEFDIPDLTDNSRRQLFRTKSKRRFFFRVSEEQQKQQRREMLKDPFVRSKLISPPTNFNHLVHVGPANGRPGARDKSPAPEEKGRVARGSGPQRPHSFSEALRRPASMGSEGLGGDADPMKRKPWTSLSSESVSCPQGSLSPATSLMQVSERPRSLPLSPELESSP
T12 sequence (P42685 whole entry): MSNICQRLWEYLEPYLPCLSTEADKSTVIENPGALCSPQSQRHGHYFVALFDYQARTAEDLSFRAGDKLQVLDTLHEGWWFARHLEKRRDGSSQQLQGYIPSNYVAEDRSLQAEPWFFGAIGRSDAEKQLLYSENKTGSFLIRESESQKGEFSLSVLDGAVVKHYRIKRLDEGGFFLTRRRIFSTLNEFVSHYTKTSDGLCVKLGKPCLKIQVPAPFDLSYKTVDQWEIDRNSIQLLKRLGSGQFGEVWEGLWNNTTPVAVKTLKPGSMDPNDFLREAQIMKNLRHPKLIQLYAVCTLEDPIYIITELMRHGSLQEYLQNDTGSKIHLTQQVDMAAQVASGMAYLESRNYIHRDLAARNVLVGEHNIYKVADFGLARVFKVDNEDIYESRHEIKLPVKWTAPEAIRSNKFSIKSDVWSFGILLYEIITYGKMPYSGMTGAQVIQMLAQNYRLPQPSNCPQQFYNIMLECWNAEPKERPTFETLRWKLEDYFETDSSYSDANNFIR
T17 sequence (P36507 whole entry): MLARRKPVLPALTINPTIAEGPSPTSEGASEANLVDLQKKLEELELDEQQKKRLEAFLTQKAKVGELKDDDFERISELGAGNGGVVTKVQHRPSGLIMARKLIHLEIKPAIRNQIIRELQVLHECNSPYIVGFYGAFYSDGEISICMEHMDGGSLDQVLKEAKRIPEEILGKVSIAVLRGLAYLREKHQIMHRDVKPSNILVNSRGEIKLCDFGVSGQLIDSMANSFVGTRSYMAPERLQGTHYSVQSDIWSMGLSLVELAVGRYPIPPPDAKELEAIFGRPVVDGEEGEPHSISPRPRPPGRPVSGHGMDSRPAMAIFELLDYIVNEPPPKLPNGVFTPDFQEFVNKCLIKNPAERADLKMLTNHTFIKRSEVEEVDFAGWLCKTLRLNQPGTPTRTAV

Cc1cn(CCN2CCN(c3ccccc3-c3cc(C#N)cc(C(=O)NCCCN4CCCC4)c3)CC2)c2ccccc12 [LLY-507, 3-cyano-5-{2-[4-[2-(3-methylindol-1-yl)ethyl]piperazin-1-yl]-phenyl}-N-[(3-pyrrolidin-1-yl)propyl]benzamide]
6.22: pIC50 (mono-methyl-Lys370 p53)
32.1%: % Effect, Potentiation (hADRβ1)
> 5 fold: increase in sensitivity at 7 days compared with 3 to 4-day treatment (MDA MB-231 cells)
< 4.70: pIC50 (hMAPKAPK2) | pIC50 (hMET(M1250T)) | pIC50 (hKIT(V559D,V654A)) | pIC50 (hAKT1) | pIC50 (hDMPK2) | pIC50 (hTAOK3) | pIC50 (hULK1) | pIC50 (hAURKB) | pIC50 (hRSK2(Kin.Dom.1-N-term)) | pIC50 [2] | pIC50 (hFRK) | pIC50 [3] | pIC50 [4] | pIC50 (hCSNK2A2) | pIC50 (hIKK-epsilon) | pIC50 (hMEK2) | pIC50 (hTAOK1) | pIC50 (hCIT) | pIC50 (hMAPKAPK5) | pIC50 (hGCN2(Kin.Dom.2,S808G)) | pIC50 (hWEE2)
< 5.00: pIC50 (hPPARδ)
-23.6%: inhibition at 10 µM (hM3)
> 6.00: pIC50 [1]

Source: publication PMC4447944 (The Journal of Biological Chemistry, 2015)
